Reference: patent US7524840B2, “7,8-disubstituted pyrazolobenzodiazepines” (Hoffmann-La Roche Inc., priority 2004, dated 2009)

Assays:
Cyclin E/CDK2 = target: T1, Cyclin E/CDK2 (Homo sapiens, UniProt P24941); assay: CDK2 Flash Plate Assay (Rb phosphorylation, 33P-ATP); type: biochemical
T1 construct: made in house; host or cells: insect cells
Procedure: To determine inhibition of CDK2 activity, purified recombinant retinoblastoma (Rb) protein was coated on 96 well FlashPlates (New England Nuclear, Boston, Mass.). […] Recombinant active human Cyclin E/CDK2 complexes were partially purified from extracts of insect cells. […] Plates were incubated for 25 minutes at room temperature with shaking, then washed and counted in the Topcount scintillation counter (Packard Instrument Co., Downers Grove, Ill.). Dilutions of test compounds were tested in duplicate in each assay. The percent inhibition of Rb phosphorylation, which is a measure of the inhibition of CDK2 activity, was determined according to the following formula:
[formula] where “test compound” refers to the average counts per minute of the test duplicates, “nonspecific” refers to the average counts per minute when no Cyclin E/CDK2 was added, and “total” refers to the average counts per minute when no compound was added.

FGF-stimulated HUVEC = FGF-stimulated HUVEC proliferation assay (BrdU); type: cell-based; conditions: Homo sapiens, BrdU labeling, FGF 5 ng per mL, 24 hour exposure, read-out: Antiproliferative Activity FGF-stimulated HUVEC Assay IC50
Procedure: The antiproliferative activity of test compounds of this invention in cell-based assays was evaluated by BrdU assay using the BrdU kit (Roche Biochemicals 1-647-229). Human umbilical vein endothelial cells (HUVEC, Clonetics CC-2519) were cultured in EGM-2 (Clonetics CC-3162) medium and seeded at 10000 cells per well in a volume of 200 μL of EGM-2 (Clonetics CC-3162) media in a 96-well flat bottom plates (Costar 3595) overnight. After 24 hours of growth at 37° C. with 5% CO2, the incubation media was removed slowly by aspiration, and the content of each well was washed with 300 μL pre-warmed EBM-2 (Clonetics CC-3156) containing 50 μg per mL of gentamycin and 50 ng per mL of amphotercin-B (Clonetics CC-4083). Subsequently, the remaining media was again aspirated and replaced with 160 μL per well of serum starvation media (EBM-2 supplemented with 1% heat inactivated FBS (Clonetics CC-4102), 50 μg per mL gentamycin and 50 ng per mL of amphotercin-B (Clonetics CC-4083), 10 units per mL of Wyeth-Ayerst heparin (NDC0641-0391-25), and 2 mM L-glutamine (GIBCO 25030-081). After serum starving the cells for 24 hours, 20 μL of test compound at 10× test concentration in serum starvation medium with 2.5% DMSO was added to the appropriate wells. The control wells contained 20 μL of serum starvation medium with 2.5% DMSO. Plates were returned to the incubator for 2 hours. After pre-incubating the cells with the test compounds for 2 hours, 20 μL of growth factors at 10X assay concentration diluted in serum starvation media, FGF at 50 ng per mL, or VEGF (R&D systems 293-VE) at 200 ng per mL were added. The final concentration of FGF in the assay was 5 ng per mL and the final concentration of VEGF in the assays was 20 ng per mL. The growth factor free control wells had 20 μL per well of serum starvation media with the same amount of BSA as the wells with growth factors. The plates were returned to the incubator for an additional 22 hours.
After 24 hour exposure to the test compounds, the cells were labeled with BrdU (Roche Biochemicals 1-647-229), by adding 20 μL per well of BrdU labeling reagent that has been diluted (1:100) in serum starvation medium. The plates were then returned to the incubator for 4 hours. The labeling medium was removed by draining the medium onto paper towels. […] The plates were read at 450 nm with reference wavelength of 650 nm. The percent inhibition for each test compound was calculated by subtracting the absorbency of the blank (no cells) wells from all wells, then subtracting the division of the average absorbency of each test duplicate by the average of the controls from 1. […] The IC50 is determined from the linear regression of a plot of the logarithm of the concentration versus percent inhibition.

H460a = H460a cell-based MTT proliferation assay; conditions: 120 h, 5 days post addition of test compound, read-out: Antiproliferative Activity H460a Assay IC90
Procedure: The H460a cell line was purchased from (ATCC; Rockville, Md.) and was grown in the medium recommended by ATCC. For analysis of the effect of the test compounds on growth of these cells, the cells were plated at 150 cells per well in a 96-well tissue culture plate, and were incubated overnight at 37° C. with 5% CO2. The next day, the test compounds were dissolved in 100% dimethyl sulfoxide (DMSO) to yield a 10 mM stock solution. Each compound was diluted with sterile medium to 1 mM in a sufficient quantity to yield a final concentration of 120 μM. The compounds were then serially diluted in medium with 1.2% DMSO. One-fourth final volume of the diluted compounds was transferred to 96 well plates. Test compounds were assayed in duplicate. […] The plates were returned to the incubator, and 5 days post addition of test compound, were analyzed as described below. […] Absorbencies were read in a microtiter plate reader (Molecular Dynamics) at a wavelength of 570 nm with a 650 nm reference. Percent inhibition was calculated by subtracting the absorbance of the blank (no cell) wells from all wells, then subtracting the division of the average absorbance of each test duplicate by the average of the controls from 1.00. Inhibitory concentrations (IC50) were determined from the linear regression of a plot of the logarithm of the concentration versus the percent inhibition.

MDA-MB-435 = MDA-MB-435 cell-based MTT proliferation assay; conditions: Homo sapiens, MDA-MB-435, 120 h, 5 days post addition of test compound, read-out: IC50 for inhibition in the MDA-MB-435 cell-based assay
Procedure: (§1) The estrogen receptor negative epithelial breast carcinoma line (MDA-MB-435) was purchased from American Type Cell Culture Collection (ATCC; Rockville, Md.) and was grown in the medium recommended by ATCC. For analysis of the effect of the test compounds on growth of these cells, the cells were plated at 2000 cells per well in a 96-well tissue culture plate, and were incubated overnight at 37° C. with 5% CO2. The next day, the test compounds were dissolved in 100% dimethyl sulfoxide (DMSO) to yield a 10 mM stock solution. Each compound was diluted with sterile medium to 1 mM in a sufficient quantity to yield a final concentration of 120 μM. The compounds were then serially diluted in medium with 1.2% DMSO. […] The plates were returned to the incubator, and 5 days post addition of test compound, were analyzed as described below.
(§2) 3-(4,5-Dimethylthiazole-2-yl)-2,5-diphenyl-2H-tetrazolium bromide (thiazolyl blue; MTT) was added to each well to yield a final concentration of 1 mg/mL. […] Absorbencies were read in a microtiter plate reader (Molecular Dynamics) at a wavelength of 570 nm with a 650 nm reference. Percent inhibition was calculated by subtracting the absorbance of the blank (no cell) wells from all wells, then subtracting the division of the average absorbance of each test duplicate by the average of the controls from 1.00. […]

SW480 = SW480 (colon) cell-based MTT proliferation assay; conditions: Homo sapiens, SW480, 144 h, 6 days post addition of the test compound, read-out: IC50 for inhibition in the SW480 (colon) based assay
Procedure: as §1, §2

SMILES	IC50 (Cyclin E/CDK2) [µM]	IC50 (FGF-stimulated HUVEC) [µM]	IC90 (H460a) [µM]	IC50 (MDA-MB-435) [µM]	IC50 (SW480) [µM]
COc1cc2c(cc1C#N)C(c1ccccc1Cl)=Nc1c(n[nH]c1C)N2 [IVb, 5-(2-chlorophenyl)-7-cyano-1,2-dihydro-8-methoxy-3-methyl-pyrazolo[3,4-b][1,4]benzodiazepine]	0.184	0.005	0.118	–	–
Cc1cc2c(cc1C)C(c1ccccc1Cl)=NCC(=O)N2 [Iw, 5-(2-chlorophenyl)-1,3-dihydro-7,8-dimethyl-2H-1,4-benzodiazepin-2-one]	–	–	–	0.95	0.95
